# Experiments:
# ragweed [1] = assay: Test A postemergence; type: in vivo, Ambrosia elatior
# Summary of the method: (§1)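 Greenhouse pot test, loam/sand soil. Formulation: non-phytotoxic solvent mix plus surfactant. Pre: directed spray onto soil after sowing. Post: plants at 1–2 leaf, 2–10 cm. Rated visually vs untreated controls at ~10 d, 0 (no effect) to 100 (complete control).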
# galium = assay: Test A postemergence; type: in vivo, Galium aparine
# Summary of the method: as §1
# barnyardgrass [2] = assay: Test A preemergence; type: in vivo, Echinochloa crus-galli; details: for Plant response rating, Barnyardgrass: 125 g ai/ha, 0 to 100 scale where 0 is no effect and 100 is complete control
# Summary of the method: as §1
# barnyardgrass [3] = assay: Test A postemergence; type: in vivo, Echinochloa crus-galli
# Summary of the method: as §1
# kochia [4] = assay: Test A preemergence; type: in vivo, Kochia scoparia; details: for Plant response rating, Kochia: 125 g ai/ha, 0 to 100 scale where 0 is no effect and 100 is complete control
# Summary of the method: as §1
# giant foxtail [5] = assay: Test A postemergence; type: in vivo, Setaria faberii
# Summary of the method: as §1
# pigweed [6] = assay: Test A preemergence; type: in vivo, Amaranthus retroflexus; details: for Plant response rating, Pigweed: 125 g ai/ha, 0 to 100 scale where 0 is no effect and 100 is complete control
# Summary of the method: as §1
# rice = assay: Test B flooded paddy test; type: in vivo, Oryza sativa; details: Flood, 250 g ai/ha; 0 to 100 scale where 0 is no effect and 100 is complete control
# Summary of the method: (§2)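 2-leaf stage plants; pots flooded to 3 cm, compound added to paddy water, depth maintained. Greenhouse 13–15 d. Visual rating vs untreated controls, 0 (no effect) to 100 (complete control); dash = no result.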
# corn = assay: Test A postemergence; type: in vivo, Zea mays
# Summary of the method: as §1
# wheat = assay: Test A postemergence; type: in vivo, Triticum aestivum
# Summary of the method: as §1
# barnyardgrass [7] = assay: Test B flooded paddy test; type: in vivo, Echinochloa crus-galli; details: Flood, 250 g ai/ha; 0 to 100 scale where 0 is no effect and 100 is complete control
# Summary of the method: as §2
# Italian ryegrass [8] = assay: Test A preemergence; type: in vivo, Lolium multiflorum; details: for Plant response rating, Ryegrass, Italian: 125 g ai/ha, 0 to 100 scale where 0 is no effect and 100 is complete control
# Summary of the method: as §1
# ragweed [9] = assay: Test A preemergence; type: in vivo, Ambrosia elatior; details: for Plant response rating, Ragweed: 125 g ai/ha, 0 to 100 scale where 0 is no effect and 100 is complete control
# Summary of the method: as §1
# Italian ryegrass [10] = assay: Test A postemergence; type: in vivo, Lolium multiflorum
# Summary of the method: as §1
# giant foxtail [11] = assay: Test A preemergence; type: in vivo, Setaria faberii; details: for Plant response rating, Foxtail, Giant: 125 g ai/ha, 0 to 100 scale where 0 is no effect and 100 is complete control
# Summary of the method: as §1
# blackgrass = assay: Test A postemergence; type: in vivo, Alopecurus myosuroides
# Summary of the method: as §1
# kochia [12] = assay: Test A postemergence; type: in vivo, Kochia scoparia
# Summary of the method: as §1
# sedge, umbrella = assay: Test B flooded paddy test; type: in vivo, Cyperus difformis; details: Flood, 250 g ai/ha; 0 to 100 scale where 0 is no effect and 100 is complete control
# Summary of the method: as §2
# pigweed [13] = assay: Test A postemergence; type: in vivo, Amaranthus retroflexus
# Summary of the method: as §1
# Heteranthera limosa = assay: Test B flooded paddy test; type: in vivo; details: Flood, 250 g ai/ha; 0 to 100 scale where 0 is no effect and 100 is complete control
# Summary of the method: as §2
# [14] = 125 g ai/ha, 0 to 100 scale where 0 is no effect and 100 is complete control
# [15] = 500 g ai/ha, 0 to 100 scale where 0 is no effect and 100 is complete control
# [16] = 500 g ai/ha, 0 to 100 scale, 0 no effect, 100 complete control, approx. 10 days
# [17] = 500 g ai/ha, 0 to 100 scale, 0 no effect, 100 complete control
# [18] = 31 g ai/ha, 0 to 100 scale, 0 no effect, 100 complete control
structure (smiles),measurement,setting,value
CC(C)(C)c1cnn(-c2c(C#N)cccc2Oc2ncc(Cl)cn2)c1 [Compound 82],"Plant response rating, Ragweed",ragweed [1]; [14],0
same,"Plant response rating, Ragweed",ragweed [1]; [15],10
same,"Plant response rating, Galium",galium; [14],10
same,"Plant response rating, Galium",galium; [15],20
same,"Plant response rating, Barnyardgrass",barnyardgrass [2],0
same,Barnyardgrass plant response rating,barnyardgrass [2]; [16],30
same,"Plant response rating, Barnyardgrass",barnyardgrass [3]; [14],0
same,"Plant response rating, Barnyardgrass",barnyardgrass [3]; [17],20
same,"Plant response rating, Kochia",kochia [4],0
same,Kochia plant response rating,kochia [4]; [16],0
same,"Plant response rating, Foxtail, Giant",giant foxtail [5]; [14],0
same,"Plant response rating, Foxtail, Giant",giant foxtail [5]; [15],20
same,"Plant response rating, Pigweed",pigweed [6],0
same,Pigweed plant response rating,pigweed [6]; [16],60
same,"Plant response rating, Rice",rice,0
same,"Plant response rating, Corn",corn; [14],0
same,"Plant response rating, Corn",corn; [17],10
same,"Plant response rating, Wheat",wheat; [14],0
same,"Plant response rating, Wheat",wheat; [15],30
same,"Plant response rating, Barnyardgrass",barnyardgrass [7],0
same,"Plant response rating, Ryegrass, Italian",Italian ryegrass [8],0
same,"Ryegrass, Italian plant response rating",Italian ryegrass [8]; [16],0
same,"Plant response rating, Ragweed",ragweed [9],0
same,Ragweed plant response rating,ragweed [9]; [16],0
same,"Plant response rating, Ryegrass, Italian",Italian ryegrass [10]; [14],0
same,"Plant response rating, Ryegrass, Italian",Italian ryegrass [10]; [15],20
same,"Plant response rating, Foxtail, Giant",giant foxtail [11],10
same,"Foxtail, Giant plant response rating",giant foxtail [11]; [16],70
same,"Plant response rating, Blackgrass",blackgrass; [14],10
same,"Plant response rating, Blackgrass",blackgrass; [17],50
same,"Plant response rating, Kochia",kochia [12]; [14],0
same,"Plant response rating, Kochia",kochia [12]; [15],10
same,"Plant response rating, Sedge, Umbrella","sedge, umbrella",0
same,"Plant response rating, Pigweed",pigweed [13]; [14],10
same,"Plant response rating, Pigweed",pigweed [13]; [15],40
same,"Plant response rating, Ducksalad",Heteranthera limosa,30
Fc1cccc(Oc2ncc(Cl)cn2)c1-n1cc(C2CCCC2)nn1 [Compound 106],"Plant response rating, Ragweed",ragweed [1]; [18],20
same,"Plant response rating, Galium",galium; [18],50
same,"Plant response rating, Galium",galium; [14],70
same,Barnyardgrass plant response rating (0 to 100 scale),barnyardgrass [2]; 31 g ai/ha,0
same,"Plant response rating, Barnyardgrass",barnyardgrass [2],40
same,"Plant response rating, Barnyardgrass",barnyardgrass [3]; [18],0
same,"Plant response rating, Barnyardgrass",barnyardgrass [3]; [14],50
same,Kochia plant response rating (0 to 100 scale),kochia [4]; 31 g ai/ha,0
same,"Plant response rating, Kochia",kochia [4],0
same,"Plant response rating, Foxtail, Giant",giant foxtail [5]; [18],50
same,"Plant response rating, Foxtail, Giant",giant foxtail [5]; [14],70
same,Pigweed plant response rating (0 to 100 scale),pigweed [6]; 31 g ai/ha,10
same,"Plant response rating, Pigweed",pigweed [6],60
same,"Plant response rating, Rice",rice,0
same,"Plant response rating, Corn",corn; [18],0
same,"Plant response rating, Corn",corn; [14],20
same,"Plant response rating, Wheat",wheat; [18],0
same,"Plant response rating, Barnyardgrass",barnyardgrass [7],0
same,"Ryegrass, Italian plant response rating (0 to 100 scale)",Italian ryegrass [8]; 31 g ai/ha,0
same,"Plant response rating, Ryegrass, Italian",Italian ryegrass [8],0
same,Ragweed plant response rating (0 to 100 scale),ragweed [9]; 31 g ai/ha,0
same,"Plant response rating, Ragweed",ragweed [9],0
same,"Plant response rating, Ryegrass, Italian",Italian ryegrass [10]; [18],0
same,"Foxtail, Giant plant response rating (0 to 100 scale)",giant foxtail [11]; 31 g ai/ha,30
same,"Plant response rating, Foxtail, Giant",giant foxtail [11],70
same,"Plant response rating, Blackgrass",blackgrass; [18],30
same,"Plant response rating, Blackgrass",blackgrass; [14],50
same,"Plant response rating, Kochia",kochia [12]; [18],0
same,"Plant response rating, Kochia",kochia [12]; [14],50
same,"Plant response rating, Sedge, Umbrella","sedge, umbrella",90
same,"Plant response rating, Pigweed",pigweed [13]; [18],50
same,"Plant response rating, Ducksalad",Heteranthera limosa,75

# — patent US9695155B2, “Herbicidal substituted pyrimidinyloxy benzene compounds” (E. I. DU PONT DE NEMOURS AND COMPANY, priority 2013, dated 2017)
